What was measured:
[1] = Binding constants to the macrocycle by fluorescent dye (DBO-amine) displacement
Description: The binding constants were determined in water at a pH of 7 in the presence of 100 μM of DBO-amine and 200 μM of p-sulphonato-calix[4]arene.

[2] = Binding to macrocycle / dapoxyl displacement in the lysine decarboxylase assay; details: for binding constant K: cucurbit[7]uril, assay in 10 mM NH4OAc buffer pH 6.0
Description: FIG. 5 is a reaction diagram for the conversion of L-lysine (505, analyte precursor) into cadaverine (503, analyte, removes the fluorescent dye) and CO2 (not shown, most of it escapes from the solution) by L-lysine decarboxylase. Dapoxyl (501) was selected as the fluorescent dye and cucurbit[7]uril (a cation receptor) as the macrocycle, the fluorescence of the dapoxyl (501) being increased by the complexing with cucurbit[7]uril. As a result of conversion of the analyte precursor 505 into the analyte 503, there is a decrease in fluorescence during the enzymatic reaction because more and more dye 501 is removed by the analyte and the increase in the fluorescence of the dapoxyl caused by the macrocycle thus falls off. The cucurbituril acts as a cation receptor which binds the cadaverine analyte 503, which has two positive charges, better than the L-lysine analyte precursor 505, which has a single positive charge (total charge). The schematic representation of the lysine decarboxylase enzyme is again that of the arginase which is used in FIG. 1, because no crystal structure exists for lysine decarboxylase. The representation was produced with the Swiss PdbViewer v3.7 program (http://www.expasy.org/spdbv/).
The reaction was carried out in the presence of 2.5 μM of dapoxyl and 200 μM of cucurbit[7]uril in a 10 mM NH4OAc buffer (pH 6.0). Without any chemical change to the L-lysine, without any radio-active marking, and without any antibodies, the enzymatic reaction could thus be followed easily, directly in solution without any further incubation stages, with the help of a commercially available fluorescence spectrometer (Varian Cary Eclipse, λexc=336 nm, λobs=390 nm in the present case). It can clearly be seen in this case that the binding constants of lysine (K approx. 2000 M^−1) and cadaverine (K>1000000 M^−1) are very different. […] This is not a problem inasmuch as it is generally only the initial speed as it were of an enzymatic reaction which is determined in order to characterise the reaction. […]

arginase = target: T1, arginase (Homo sapiens, UniProt P05089); test: Arginase inhibitor screening, Hill analysis of fluorescence (DBO-amine/calixarene displacement assay); type: biochemical; details: 0.5 mM arginine, 16 μg/ml arginase, water pH 9.5, 100 μM DBO-amine, 200 μM p-sulphonato-calix[4]arene, 6 min incubation
T1 sequence (P05089 1-322): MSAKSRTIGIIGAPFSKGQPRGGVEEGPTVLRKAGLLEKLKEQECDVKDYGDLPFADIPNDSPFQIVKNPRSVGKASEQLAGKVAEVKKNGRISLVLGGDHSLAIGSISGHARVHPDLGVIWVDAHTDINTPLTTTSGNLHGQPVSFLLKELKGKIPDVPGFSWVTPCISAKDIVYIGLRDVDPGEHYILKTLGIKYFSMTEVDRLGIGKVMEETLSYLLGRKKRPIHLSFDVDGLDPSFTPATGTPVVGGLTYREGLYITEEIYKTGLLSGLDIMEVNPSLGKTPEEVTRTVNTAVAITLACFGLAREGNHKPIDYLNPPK
Description: What was selected as a fluorescent dye was 1-aminomethyl-2,3-diazabicyclo[2.2.2]oct-2-ene (101, DBO-amine) and p-sulphonato-calix[4]arene (a cation receptor) was used as the macrocycle, the fluorescence of the DBO-amine 101 being quenched by the calixarene.
The reaction was performed in the presence of 100 μM of the fluorescent dye DBO-amine and 200 μM of p-sulphonato-calix[4]arene in water at a pH of 9.5.
For this purpose, 0.5 mM of arginine was reacted with 16 μg/ml of arginase in different concentrations of the respective inhibitors. The solution (water, pH 9.5) also contained 100 μM of DBO-amine and 200 μM of p-sulphonato-calix[4]arene. For the Hill analysis, the intensity of fluorescence was plotted against the logarithm of the inhibitor concentration after an incubation time of 6 minutes.

| Compound | binding constant K [2] | Ki (arginase) [nM] | also measured |
| --- | --- | --- | --- |
| N=C(N)NCCC[C@H](N)C(=O)O [arginine, L-arginine] |  |  | binding constant K to the macrocycle ([1]; water, pH 7, 100 μM DBO-amine, 200 μM p-sulphonato-calix[4]arene): 3170 ± 130 M⁻¹ |
| NCCCCCN [cadaverine] | > 1000000 M⁻¹ |  | concentration enough to remove all the fluorescent dye from the macrocycle ([2]; 2.5 μM dapoxyl, 200 μM cucurbit[7]uril, 10 mM NH4OAc buffer pH 6.0): 100 μm |
| NCCCC[C@H](N)C(=O)O [lysine, L-lysine] | approx. 2000 M^−1 |  |  |
| N[C@@H](CCCCB(O)O)C(=O)O [ABH, 2(s)-amino-6-boronohexanoic acid] |  | 1000 ± 100 |  |
| N[C@@H](CSCCB(O)O)C(=O)O [BEC, S-(2-boronethyl)-L-cysteine] |  | 4900 ± 500 |  |
| NC(N)=O [urea] |  |  | binding constant to the macrocycle (in words) ([1]; uncharged molecule with a cation receptor, binding can be ignored): extremely low binding constant |

Source: US20100021945A1, “DETERMINATION OF CHANGES IN CONCENTRATION” (JACOBS UNIVERSITY BREMEN GGMBH, priority 2006, published 2010)
